Measured values: patent US20250346574A1, “PYRIDINYL SUBSTITUTED OXOISOINDOLINE COMPOUNDS FOR THE TREATMENT OF CANCER” (Bristol-Myers Squibb Company, priority 2021, published 2025)

target: Helios (Homo sapiens, UniProt Q96SW2+Q9UKS7); assay: Helios Human T Regulatory Cells Degradation Assay; format: cell-based; set-up: fluorescently labelled antibodies against Helios in 1× Permeabilization buffer; endogenous in cells; host or cells: cryopreserved human T regulatory cells; settings: cryopreserved human T regulatory cells, incubated 20 hours, Helios-APC antibody staining, flow cytometry; read-out: hTreg Helios DC50
Procedure, shortened: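 Cryopreserved human Treg cells thawed in RPMI+10% FBS+20 ng/mL IL-2, rested 3 h, then incubated with compound 20 hours at 37° C, 5% CO2. Near-IR viability stain, permeabilization, flow cytometry read-out.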

Sequence of Helios (Q9UKS7 whole entry): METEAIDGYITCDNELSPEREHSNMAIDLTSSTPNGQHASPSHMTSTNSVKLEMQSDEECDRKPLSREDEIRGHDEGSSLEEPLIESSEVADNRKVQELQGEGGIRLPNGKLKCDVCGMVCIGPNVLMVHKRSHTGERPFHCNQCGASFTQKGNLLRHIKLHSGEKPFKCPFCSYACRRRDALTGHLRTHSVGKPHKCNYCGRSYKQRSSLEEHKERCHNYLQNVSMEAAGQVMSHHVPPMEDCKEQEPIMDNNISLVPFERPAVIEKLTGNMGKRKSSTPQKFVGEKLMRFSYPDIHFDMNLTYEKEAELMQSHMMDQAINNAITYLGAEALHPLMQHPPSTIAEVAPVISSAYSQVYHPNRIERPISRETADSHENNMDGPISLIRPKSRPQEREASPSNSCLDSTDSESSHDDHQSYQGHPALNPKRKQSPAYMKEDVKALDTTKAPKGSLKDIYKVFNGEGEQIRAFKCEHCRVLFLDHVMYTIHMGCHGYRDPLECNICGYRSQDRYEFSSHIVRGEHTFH
Sequence of Helios (Q96SW2 whole entry): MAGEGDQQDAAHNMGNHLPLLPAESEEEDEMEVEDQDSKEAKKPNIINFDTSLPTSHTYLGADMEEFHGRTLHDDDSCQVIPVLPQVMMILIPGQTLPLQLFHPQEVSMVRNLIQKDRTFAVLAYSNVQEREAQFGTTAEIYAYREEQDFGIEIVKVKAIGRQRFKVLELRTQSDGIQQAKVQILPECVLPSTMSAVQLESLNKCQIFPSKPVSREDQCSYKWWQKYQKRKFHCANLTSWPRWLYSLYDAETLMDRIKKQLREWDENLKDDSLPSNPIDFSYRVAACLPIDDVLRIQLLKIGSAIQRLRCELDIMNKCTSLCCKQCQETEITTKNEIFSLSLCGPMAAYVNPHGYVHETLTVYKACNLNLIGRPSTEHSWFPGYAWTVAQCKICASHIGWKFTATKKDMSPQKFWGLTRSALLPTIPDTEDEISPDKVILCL
Sequence of Helios (Q16531 whole entry partner): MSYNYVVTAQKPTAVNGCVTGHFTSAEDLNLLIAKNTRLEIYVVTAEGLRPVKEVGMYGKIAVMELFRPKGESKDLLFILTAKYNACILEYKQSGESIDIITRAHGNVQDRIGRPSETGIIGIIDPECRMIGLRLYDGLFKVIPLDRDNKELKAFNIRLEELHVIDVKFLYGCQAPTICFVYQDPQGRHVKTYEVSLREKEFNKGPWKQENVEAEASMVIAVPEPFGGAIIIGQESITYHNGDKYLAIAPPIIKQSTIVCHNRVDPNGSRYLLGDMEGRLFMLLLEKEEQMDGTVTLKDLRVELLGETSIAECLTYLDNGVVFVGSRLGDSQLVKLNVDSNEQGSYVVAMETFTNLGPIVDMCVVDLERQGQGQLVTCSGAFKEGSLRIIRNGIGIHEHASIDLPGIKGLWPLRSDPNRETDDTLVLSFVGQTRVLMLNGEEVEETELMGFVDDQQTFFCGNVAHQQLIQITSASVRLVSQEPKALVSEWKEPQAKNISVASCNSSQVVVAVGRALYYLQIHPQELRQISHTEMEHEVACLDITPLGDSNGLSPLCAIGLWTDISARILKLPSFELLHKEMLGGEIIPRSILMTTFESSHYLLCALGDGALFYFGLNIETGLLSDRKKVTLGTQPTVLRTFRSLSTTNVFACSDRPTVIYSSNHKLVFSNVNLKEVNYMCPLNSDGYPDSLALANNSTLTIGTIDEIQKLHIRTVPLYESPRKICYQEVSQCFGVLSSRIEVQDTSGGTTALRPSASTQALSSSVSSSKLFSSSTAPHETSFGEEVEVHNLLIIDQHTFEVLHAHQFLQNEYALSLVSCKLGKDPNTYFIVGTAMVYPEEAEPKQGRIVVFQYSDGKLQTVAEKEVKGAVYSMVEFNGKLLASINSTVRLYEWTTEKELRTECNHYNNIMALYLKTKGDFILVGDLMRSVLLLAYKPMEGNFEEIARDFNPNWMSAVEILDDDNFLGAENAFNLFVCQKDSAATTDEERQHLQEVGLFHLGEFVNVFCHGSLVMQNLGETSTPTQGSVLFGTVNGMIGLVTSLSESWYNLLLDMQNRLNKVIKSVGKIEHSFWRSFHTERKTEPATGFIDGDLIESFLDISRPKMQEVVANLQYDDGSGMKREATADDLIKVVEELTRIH

| SMILES | DC50 |
| --- | --- |
| CC(C)(C)OC(=O)N1CCCC2(CN(Cc3ccnc(-c4ccc5c(c4)CN(C4CCC(=O)NC4=O)C5=O)c3F)C2)C1 (centres unmarked) [Example 208, tert-butyl 2-((2-(2-(2,6-dioxopiperidin-3-yl)-1-oxoisoindolin-5-yl)-3-fluoropyridin-4-yl)methyl)-2,6-diazaspiro[3.5]nonane-6-carboxylate] | ≥ 10000 nM |
| O=C1CC[C@H](N2Cc3cc(-c4cc(CN5CC6CC(O)CC6C5)ccn4)ccc3C2=O)C(=O)N1 (stereo partly drawn) [Example 146, (3S)-3-(5-(4-((5-hydroxyhexahydrocyclopenta[c]pyrrol-2(1H)-yl)methyl)pyridin-2-yl)-1-oxoisoindolin-2-yl)piperidine-2,6-dione] | 3 nM |
| COC(=O)N1CCC2(CN(Cc3ccnc(-c4ccc5c(c4)CN(C4CCC(=O)NC4=O)C5=O)c3F)C2)C1 (centres unmarked) [Example 273, methyl 2-((2-(2-(2,6-dioxopiperidin-3-yl)-1-oxoisoindolin-5-yl)-3-fluoropyridin-4-yl)methyl)-2,6-diazaspiro[3.4]octane-6-carboxylate] | 280 nM |
| CC(O)C1CCN(Cc2ccnc(-c3ccc4c(c3)CN(C3CCC(=O)NC3=O)C4=O)c2)C1 (centres unmarked) [Example 107, 3-(5-(4-((3-(1-hydroxyethyl)pyrrolidin-1-yl)methyl)pyridin-2-yl)-1-oxoisoindolin-2-yl)piperidine-2,6-dione] | 5.8 nM |
| O=C1CCC(N2Cc3cc(-c4cc(CN5Cc6cnc(Cl)cc6C5)ccn4)ccc3C2=O)C(=O)N1 (centres unmarked) [Example 103, 3-(5-(4-((6-chloro-1,3-dihydro-2H-pyrrolo[3,4-c]pyridin-2-yl)methyl)pyridin-2-yl)-1-oxoisoindolin-2-yl)piperidine-2,6-dione] | 4110 nM |
| O=C1CC[C@H](N2Cc3cc(-c4cc(CN5CC6(CCOCC6)C5)ccn4)ccc3C2=O)C(=O)N1 [Example 158, (S)-3-(5-(4-((7-oxa-2-azaspiro[3.5]nonan-2-yl)methyl)pyridin-2-yl)-1-oxoisoindolin-2-yl)piperidine-2,6-dione] | 3.2 nM |
| O=C1CCC(N2Cc3cc(-c4nccc(CN5CCC6(CC5)CC(O)C6)c4F)ccc3C2=O)C(=O)N1 (centres unmarked) [Example 225, 3-(5-(3-fluoro-4-((2-hydroxy-7-azaspiro[3.5]nonan-7-yl)methyl)pyridin-2-yl)-1-oxoisoindolin-2-yl)piperidine-2,6-dione] | 29.3 nM |
| COc1cc(CN2CC3(CCC3)C2)cc(-c2ccc3c(c2)CN(C2CCC(=O)NC2=O)C3=O)n1 (centres unmarked) [Example 174, 3-(5-(4-((2-azaspiro[3.3]heptan-2-yl)methyl)-6-methoxypyridin-2-yl)-1-oxoisoindolin-2-yl)piperidine-2,6-dione] | 1.5 nM |
| O=C1CCC(N2Cc3c(ccc(-c4nccc(CN5CC[C@H](CO)C5)c4F)c3F)C2=O)C(=O)N1 (stereo partly drawn) [Example 277, 3-(4-fluoro-5-(3-fluoro-4-(((S)-3-(hydroxymethyl)pyrrolidin-1-yl)methyl)pyridin-2-yl)-1-oxoisoindolin-2-yl)piperidine-2,6-dione] | 31.9 nM |
| O=C1CCC(N2Cc3cc(-c4nccc(CN5CC[C@H](F)C5)c4F)ccc3C2=O)C(=O)N1 (stereo partly drawn) [Example 184, 3-(5-(3-fluoro-4-(((S)-3-fluoropyrrolidin-1-yl)methyl)pyridin-2-yl)-1-oxoisoindolin-2-yl)piperidine-2,6-dione] | 3160 nM |
| O=C1CCC(N2Cc3cc(-c4cc(Cn5cccn5)ccn4)ccc3C2=O)C(=O)N1 (centres unmarked) [Example 165, 3-(5-(4-((1H-pyrazol-1-yl)methyl)pyridin-2-yl)-1-oxoisoindolin-2-yl)piperidine-2,6-dione] | 178 nM |
| O=C1CCC(N2Cc3cc(-c4nccc(CN5CCC(OC(F)(F)F)C5)c4F)ccc3C2=O)C(=O)N1 (centres unmarked) [Example 183, 3-(5-(3-fluoro-4-((3-(trifluoromethoxy)pyrrolidin-1-yl)methyl)pyridin-2-yl)-1-oxoisoindolin-2-yl)piperidine-2,6-dione] | ≥ 10000 nM |
| CC1CC(O)(c2ccc(F)cc2)CN1Cc1ccnc(-c2ccc3c(c2)CN(C2CCC(=O)NC2=O)C3=O)c1F (centres unmarked) [Example 237, 3-(5-(3-fluoro-4-((4-(4-fluorophenyl)-4-hydroxy-2-methylpyrrolidin-1-yl)methyl)pyridin-2-yl)-1-oxoisoindolin-2-yl)piperidine-2,6-dione] | ≥ 10000 nM |
| Cc1cc(C2CCCN2Cc2ccnc(-c3ccc4c(c3)CN(C3CCC(=O)NC3=O)C4=O)c2F)on1 (centres unmarked) [Example 244, 3-(5-(3-fluoro-4-((2-(3-methylisoxazol-5-yl)pyrrolidin-1-yl)methyl)pyridin-2-yl)-1-oxoisoindolin-2-yl)piperidine-2,6-dione] | 242 nM |
| O=C1CC[C@H](N2Cc3cc(-c4nccc(CN5CCC6(CCNC6=O)CC5)c4F)ccc3C2=O)C(=O)N1 [Example 150, (S)-3-(5-(3-fluoro-4-((1-oxo-2,8-diazaspiro[4.5]decan-8-yl)methyl)pyridin-2-yl)-1-oxoisoindolin-2-yl)piperidine-2,6-dione] | ≥ 10000 nM |
| CC(C)(C)OC(=O)[C@@H]1C[C@@H](OC(C)(C)C)CN1Cc1ccnc(-c2ccc3c(c2)CN(C2CCC(=O)NC2=O)C3=O)c1F (single isomer, unassigned) [Example 214] | 3.5 nM |
| O=C1CCC(N2Cc3cc(-c4nccc(CN5CCn6c(nnc6C(F)(F)F)C5)c4F)ccc3C2=O)C(=O)N1 (centres unmarked) [Example 266, 3-(5-(3-fluoro-4-((3-(trifluoromethyl)-5,6-dihydro-[1,2,4]triazolo[4,3-a]pyrazin-7(8H)-yl)methyl)pyridin-2-yl)-1-oxoisoindolin-2-yl)piperidine-2,6-dione] | ≥ 10000 nM |
| O=C1CCC(N2Cc3c(ccc(-c4nccc(CN5CCn6c(nnc6C(F)(F)F)C5)c4F)c3F)C2=O)C(=O)N1 (centres unmarked) [Example 282, 3-(4-fluoro-5-(3-fluoro-4-((3-(trifluoromethyl)-5,6-dihydro-[1,2,4]triazolo[4,3-a]pyrazin-7(8H)-yl)methyl)pyridin-2-yl)-1-oxoisoindolin-2-yl)piperidine-2,6-dione] | ≥ 10000 nM |
| CC(C)(O)[C@H]1CCCN1Cc1ccnc(-c2ccc3c(c2)CN(C2CCC(=O)NC2=O)C3=O)c1Cl (stereo partly drawn) [Example 96, 3-(5-(3-chloro-4-(((R)-2-(2-hydroxypropan-2-yl)pyrrolidin-1-yl)methyl)pyridin-2-yl)-1-oxoisoindolin-2-yl)piperidine-2,6-dione] | 6.6 nM |
| CC(C)(O)C1CN(Cc2ccnc(-c3ccc4c(c3)CN(C3CCC(=O)NC3=O)C4=O)c2Cl)C1 (centres unmarked) [Example 97, 3-(5-(3-chloro-4-((3-(2-hydroxypropan-2-yl)azetidin-1-yl)methyl)pyridin-2-yl)-1-oxoisoindolin-2-yl) piperidine-2,6-dione] | 17.1 nM |
| C[C@@H]1c2c(ccc(-c3cc(CN4CCC(C)(O)C4)ccn3)c2F)C(=O)N1[C@H]1CCC(=O)NC1=O (stereo partly drawn) [Example 140, (3S)-3-((3R)-4-fluoro-5-(4-((3-hydroxy-3-methylpyrrolidin-1-yl)methyl)pyridin-2-yl)-3-methyl-1-oxoisoindolin-2-yl)piperidine-2,6-dione] | 79.1 nM |
| C[C@@H]1c2c(ccc(-c3cc(CN4CC[C@@H](Oc5ccccc5)C4)ccn3)c2F)C(=O)N1[C@H]1CCC(=O)NC1=O [Example 141, (S)-3-((R)-4-fluoro-3-methyl-1-oxo-5-(4-(((R)-3-phenoxypyrrolidin-1-yl)methyl)pyridin-2-yl)isoindolin-2-yl)piperidine-2,6-dione] | ≥ 10000 nM |
| CC(C)(O)[C@H]1CCN(Cc2ccnc(-c3ccc4c(c3)CN(C3CCC(=O)NC3=O)C4=O)c2F)C1 (stereo partly drawn) [Example 110, 3-(5-(3-fluoro-4-(((S)-3-(2-hydroxypropan-2-yl)pyrrolidin-1-yl)methyl)pyridin-2-yl)-1-oxoisoindolin-2-yl)piperidine-2,6-dione] | 9.8 nM |
| O=C1CCC(N2Cc3cc(-c4nccc(CN5CCC(O)(c6ccccc6)C5)c4F)ccc3C2=O)C(=O)N1 (centres unmarked) [Example 257, 3-(5-(3-fluoro-4-((3-hydroxy-3-phenylpyrrolidin-1-yl)methyl)pyridin-2-yl)-1-oxoisoindolin-2-yl)piperidine-2,6-dione] | ≥ 10000 nM |
| CC1CC(O)CCN1Cc1ccnc(-c2ccc3c(c2)CN(C2CCC(=O)NC2=O)C3=O)c1F (single isomer, unassigned) [Example 212, 3-(5-(3-fluoro-4-((4-hydroxy-2-methylpiperidin-1-yl)methyl)pyridin-2-yl)-1-oxoisoindolin-2-yl)piperidine-2,6-dione] | 653 nM |
| COC(=O)N1CCCC12CCN(Cc1ccnc(-c3ccc4c(c3)CN(C3CCC(=O)NC3=O)C4=O)c1F)C2 (centres unmarked) [Example 271, methyl 7-((2-(2-(2,6-dioxopiperidin-3-yl)-1-oxoisoindolin-5-yl)-3-fluoropyridin-4-yl)methyl)-1,7-diazaspiro[4.4]nonane-1-carboxylate] | ≥ 10000 nM |
| O=C1CCC(N2Cc3cc(-c4nccc(CN5CCC6(CC5)CC(O)CO6)c4F)ccc3C2=O)C(=O)N1 (centres unmarked) [Example 222, 3-(5-(3-fluoro-4-((3-hydroxy-1-oxa-8-azaspiro[4.5]decan-8-yl)methyl)pyridin-2-yl)-1-oxoisoindolin-2-yl)piperidine-2,6-dione] | 2760 nM |
| COc1c(CN2CCC(C(C)(C)O)CC2)ccnc1-c1ccc2c(c1)CN(C1CCC(=O)NC1=O)C2=O (centres unmarked) [Example 172, 3-(5-(4-((4-(2-hydroxypropan-2-yl)piperidin-1-yl)methyl)-3-methoxypyridin-2-yl)-1-oxoisoindolin-2-yl)piperidine-2,6-dione] | 5.2 nM |
| Cc1c2c(nn1C)CCN(Cc1ccnc(-c3ccc4c(c3)CN(C3CCC(=O)NC3=O)C4=O)c1F)C2 (centres unmarked) [Example 265, 3-(5-(4-((2,3-dimethyl-2,4,6,7-tetrahydro-5H-pyrazolo[4,3-c]pyridin-5-yl)methyl)-3-fluoropyridin-2-yl)-1-oxoisoindolin-2-yl)piperidine-2,6-dione] | ≥ 10000 nM |
